According to ChEMBL document CHEMBL1201862, “PubChem BioAssay data set” (2004):
Several values for one entry are separate records, joined by “and”; a condition that tells them apart may be missing. Equal values may be shown once.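 These data come from cells grown in 96-well plates and exposed to compound for 48 hours at five concentrations. Abbreviation: GI50, concentration required for 50% inhibition of growth.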 Activity calls are given as the source filed them. No stated cut-off is given here; in the data, active = GI50 up to about 1.1 µM and inactive = higher.

What was measured:
Experiment in all cases: NCI anticancer screen, dose series, 48 h
Hs-578T = tested on: Hs-578T
SF-539 = tested on: SF-539
K562 = tested on: K562
MDA-N = tested on: MDA-N
NCI-H460 = tested on: NCI-H460
SK-MEL-28 = tested on: SK-MEL-28
SK-MEL-5 = tested on: SK-MEL-5
OVCAR-5 = tested on: OVCAR-5
UACC-62 = tested on: UACC-62
COLO 205 = tested on: COLO 205
NCI/ADR-RES = tested on: NCI/ADR-RES
NCI-H23 = tested on: NCI-H23
HT-29 = tested on: HT-29
RXF 393 = tested on: RXF 393
UO-31 = tested on: UO-31
KM12 = tested on: KM12
OVCAR-8 = tested on: OVCAR-8
MDA-MB-231 = tested on: MDA-MB-231
SW-620 = tested on: SW-620
A498 = tested on: A498

Measured: GI50

Oc1ccc[nH]c1=[Se]
inactive: Hs-578T > 100 µM | SF-539 54.6 µM | K562 36.2 µM | MDA-N 57 µM | NCI-H460 41.8 µM | SK-MEL-28 71.1 µM | SK-MEL-5 39.4 µM | OVCAR-5 57.1 µM | UACC-62 > 100 µM | COLO 205 18.7 µM | NCI/ADR-RES 55.1 µM | NCI-H23 46.2 µM | HT-29 > 100 µM | RXF 393 > 100 µM | UO-31 83.2 µM | KM12 45.5 µM | OVCAR-8 37.2 µM | MDA-MB-231 > 100 µM | SW-620 77.6 µM

S=c1sc2c(s1)SCc1cccc(n1)CSc1sc(=S)sc1SCc1cccc(n1)CS2
inactive: Hs-578T > 100 µM | A498 > 100 µM | SF-539 > 100 µM | K562 > 100 µM | NCI-H460 > 100 µM | SK-MEL-28 > 100 µM | SK-MEL-5 > 100 µM | OVCAR-5 > 100 µM | UACC-62 > 100 µM | COLO 205 > 100 µM | NCI/ADR-RES > 100 µM | NCI-H23 > 100 µM | HT-29 > 100 µM | UO-31 > 100 µM | KM12 > 100 µM | OVCAR-8 > 100 µM | MDA-MB-231 > 100 µM | SW-620 > 100 µM

O=C(CP(c1ccccc1)c1ccccc1)c1cccc(C(=O)CP(c2ccccc2)c2ccccc2)c1
inactive: Hs-578T 62.7 µM | SF-539 > 100 µM | K562 8.02 µM | MDA-N 70.3 µM | NCI-H460 19.7 µM | SK-MEL-28 92 µM | SK-MEL-5 23.4 µM | OVCAR-5 > 100 µM | UACC-62 78.3 µM | COLO 205 12.1 µM | NCI/ADR-RES > 100 µM | HT-29 8.2 µM | RXF 393 61.7 µM | UO-31 12.5 µM | KM12 26.1 µM | OVCAR-8 89.7 µM | MDA-MB-231 68.9 µM | SW-620 > 100 µM

CCOC(=O)c1c(-c2ccccc2)nc2ccccc2c1O
inactive: Hs-578T > 100 µM | A498 > 100 µM | K562 > 100 µM | MDA-N > 100 µM | NCI-H460 > 100 µM | SK-MEL-28 > 100 µM | SK-MEL-5 > 100 µM | OVCAR-5 > 100 µM | COLO 205 > 100 µM | NCI/ADR-RES > 100 µM | NCI-H23 > 100 µM | HT-29 > 100 µM | RXF 393 > 100 µM | UO-31 > 100 µM | KM12 > 100 µM | OVCAR-8 > 100 µM | SW-620 > 100 µM

CCCCNC(=O)OCCN=c1c2ccccc2ccc2ccccc12
inactive: Hs-578T > 100 µM | SF-539 > 100 µM | K562 > 100 µM | MDA-N > 100 µM | NCI-H460 > 100 µM | SK-MEL-28 > 100 µM | SK-MEL-5 > 100 µM | OVCAR-5 > 100 µM | UACC-62 > 100 µM | COLO 205 > 100 µM | NCI/ADR-RES > 100 µM | NCI-H23 > 100 µM | HT-29 > 100 µM | RXF 393 > 100 µM | UO-31 > 100 µM | KM12 > 100 µM | OVCAR-8 > 100 µM | MDA-MB-231 > 100 µM | SW-620 > 100 µM

COc1ccc(C2c3cc4c(cc3OC(NNc3ccccc3)C2C)OCO4)cc1 (stereo unspecified)
inactive: Hs-578T 16.1 µM | A498 17.2 µM | SF-539 2.36 µM | K562 1.7 µM | MDA-N 8.71 µM | NCI-H460 3.57 µM | SK-MEL-28 26.4 µM | SK-MEL-5 17.9 µM | OVCAR-5 7.33 µM | UACC-62 4.92 µM | COLO 205 7.06 µM | NCI-H23 13.4 µM | HT-29 11.6 µM | RXF 393 8.51 µM | UO-31 4.33 µM | KM12 2.91 µM | OVCAR-8 24.9 µM | MDA-MB-231 23.2 µM | SW-620 21.7 µM

CCn1c(-c2ccc(F)cc2)nc2c1C(=O)c1ccccc1C2=O
inactive: Hs-578T > 100 µM | SF-539 > 100 µM | K562 > 100 µM | MDA-N > 100 µM | NCI-H460 > 100 µM | SK-MEL-28 > 100 µM | SK-MEL-5 > 100 µM | OVCAR-5 > 100 µM | UACC-62 > 100 µM | COLO 205 > 100 µM | NCI/ADR-RES > 100 µM | NCI-H23 > 100 µM | HT-29 75.5 µM | RXF 393 54 µM | KM12 > 100 µM | OVCAR-8 > 100 µM | MDA-MB-231 > 100 µM | SW-620 > 100 µM

COc1ccc(-c2c(C#N)c(N)n(C3OC(CO)C(O)C(O)C3O)c(=S)c2C#N)cc1 (stereo unspecified)
inactive: Hs-578T 21.7 µM | A498 > 100 µM and 52.6 µM | SF-539 > 100 µM | K562 > 100 µM | MDA-N > 100 µM | NCI-H460 97.1 µM | SK-MEL-28 > 100 µM | SK-MEL-5 > 100 µM and 74 µM | OVCAR-5 > 100 µM | UACC-62 > 100 µM | NCI-H23 > 100 µM | HT-29 > 100 µM | RXF 393 > 100 µM | UO-31 82.2 µM | KM12 > 100 µM | OVCAR-8 > 100 µM | MDA-MB-231 > 100 µM | SW-620 > 100 µM and 73.1 µM

CSC1=N[C@H](c2ccccc2)CS1
inactive: Hs-578T > 100 µM | A498 > 100 µM | SF-539 > 100 µM | K562 > 100 µM | MDA-N > 100 µM | NCI-H460 > 100 µM | SK-MEL-28 > 100 µM | SK-MEL-5 > 100 µM | OVCAR-5 > 100 µM | UACC-62 > 100 µM | COLO 205 > 100 µM | NCI/ADR-RES > 100 µM | NCI-H23 > 100 µM | HT-29 > 100 µM | UO-31 > 100 µM | KM12 > 100 µM | SW-620 > 100 µM

CCOC(=O)c1ccc(-c2ccc(Cl)cc2)[nH]1
inactive: Hs-578T > 10 µM | SF-539 > 10 µM | K562 > 10 µM | MDA-N 5.45 µM | NCI-H460 > 10 µM | SK-MEL-5 > 10 µM | OVCAR-5 > 10 µM | UACC-62 > 10 µM | NCI/ADR-RES > 10 µM | NCI-H23 > 10 µM | HT-29 > 10 µM | UO-31 > 10 µM | KM12 > 10 µM | OVCAR-8 > 10 µM

Cc1ccc(C(=O)Nc2ccc(S(=O)(=O)O)c3cc(S(=O)(=O)O)cc(S(=O)(=O)O)c23)cc1NC(=O)c1cccc(N)c1
inactive: Hs-578T > 100 µM | A498 > 100 µM | SF-539 > 100 µM | K562 > 100 µM | NCI-H460 > 100 µM | SK-MEL-28 > 100 µM | SK-MEL-5 > 100 µM | OVCAR-5 > 100 µM | UACC-62 > 100 µM | COLO 205 > 100 µM | NCI/ADR-RES > 100 µM | NCI-H23 > 100 µM | HT-29 > 100 µM | RXF 393 > 100 µM | UO-31 > 100 µM | KM12 > 100 µM | OVCAR-8 > 100 µM | MDA-MB-231 > 100 µM | SW-620 > 100 µM
